The values that follow come from patent publication US5498628A, “Naphthamide derivatives” (Institut National de la Sante et de la Recherche Medicale, priority 1991, dated 1996).

Structures can show the parent of a compound that is named as a salt.

Data set [1] deals with HUMAN D3 DOPAMINERGIC RECEPTOR (Homo sapiens, UniProt P35462). Description: biochemical. Conditions: read-out: Ki VALUE (inhibition constant for binding of [^125 I]iodosulpiride). The method, then:
The inhibition constants for the binding of [^125 I]iodosulpiride to the D3 receptor were measured as described in the French Patent Application filed by INSERM on 6th Nov. 1990 under No. 90/13731.

In data set [2] the test system is dopamine receptors. The data set is described as follows: Antagonism of apomorphine-induced rearing in mice (dopamine receptor blockade in vivo). Conditions: i.p. The method, then: (§1) The capacity to bring about a blockade of the dopamine receptors in vivo was evaluated for some of the compounds according to the invention. The tests used were the antagonism of stereotyped sniffing and rearing induced by apomorphine in mice. These tests have been described by Protais et al. (Psychopharmacology, 1976, 50:1-6) and by Vasse et al. (Naunyn Schmiedeberg's Arch. Pharmacol., 1985, 329:108-116).

For data set [3], the system named is dopamine receptors. Description: Antagonism of apomorphine-induced stereotyped sniffing in mice (dopamine receptor blockade in vivo). Conditions: Mus musculus, ip, read-out: ID50 for the antagonism of sniffing. The method, then:
as §1

UniProt P35462, sequence (P35462 whole entry): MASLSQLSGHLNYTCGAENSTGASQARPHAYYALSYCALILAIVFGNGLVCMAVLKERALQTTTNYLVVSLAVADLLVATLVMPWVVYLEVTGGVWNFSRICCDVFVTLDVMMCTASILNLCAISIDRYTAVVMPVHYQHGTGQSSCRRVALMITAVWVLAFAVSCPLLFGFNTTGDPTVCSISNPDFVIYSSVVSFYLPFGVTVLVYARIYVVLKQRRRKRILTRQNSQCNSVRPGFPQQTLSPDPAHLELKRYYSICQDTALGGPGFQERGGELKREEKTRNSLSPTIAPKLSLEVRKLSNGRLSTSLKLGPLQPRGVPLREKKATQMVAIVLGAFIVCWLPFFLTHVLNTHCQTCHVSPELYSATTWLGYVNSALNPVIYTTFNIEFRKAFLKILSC

`CCCCN1CCCC1CNC(=O)c1cc(Br)c2ccccc2c1OC` (stereo not drawn) [Example 1, N-[(N-1-butyl-2-pyrrolidinyl)methyl]-1-methoxy-4-bromo-2-naphthamide hydrochloride]: in data set [1], the inhibition constant Ki stood at 0.24 nM.

With `C=CCN1CCCC1CNC(=O)c1cc(C#N)c2ccccc2c1OC` (stereo not drawn) [Example 2, N-[(N-allyl-2-pyrrolidinyl)methyl]-1-methoxy-4-cyano-2-naphthamide], the inhibitory constant (Ki) in data set [1] was 0.51 nM.

`CCN1CCCC1CNC(=O)c1ccc2ccccc2c1OC` (stereo not drawn) [Example 4, N-[(N-Ethyl-2-pyrrolidinyl)methyl]-1-methoxy-2-naphthamide]: the inhibition constant (Ki) in data set [1] was 35 nM.

Consider `CCN1CCCC1CNC(=O)c1cc([N+](=O)[O-])c2ccccc2c1OC` (stereo not drawn) [Example 6, 4-Nitro-N-[(N-ethyl-2-pyrrolidinyl)methyl]-1-methoxy-2-naphthamide], for which the inhibitory constant (Ki) in data set [1] worked out at 0.3 nM.

On to `CCN1CCCC1CNC(=O)c1cc(Cl)c2ccccc2c1OC` (stereo not drawn) [Example 8, 4-Chloro-N-[(N-ethyl-2-pyrrolidinyl)methyl]-1-methoxy-2-naphthamide hydrochloride], for which the Ki in data set [1] turned out to be 0.26 nM. Moreover, the ED50 in data set [2] (Mus musculus, ip, apomorphine-induced rearing, read-out: ID50 for the antagonism of rearing) was found to be 0.16 mg/kg; in data set [3], 0.42 mg/kg. Moreover, the “crossing of the blood-brain barrier” value in data set [2] (inferred from ID50 values for rearing and sniffing) is reported as “readily crosses the blood-brain barrier”.

As to `COc1c(C(=O)NCC2CCCN2Cc2ccccc2)ccc2ccccc12` (stereo not drawn) [Example 11, N-[(N-Benzyl-2-pyrrolidinyl)methyl]-1-methoxy-2-naphthamide hydrochloride], in data set [1], the Ki was determined as 91 nM.

For the compound `COc1c(C(=O)NCC2CCCN2Cc2ccccc2)cc([N+](=O)[O-])c2ccccc12` (stereo not drawn) [Example 12, 4-Nitro-N-[(N-benzyl-2-pyrrolidinyl)methyl]-1-methoxy-2-naphthamide], in data set [1], the Ki was 1.7 nM.

On to `COc1c(C(=O)NCC2CCCN2Cc2ccccc2)cc(Cl)c2ccccc12` (stereo not drawn) [Example 13, 4-Chloro-N-[(N-benzyl-2-pyrrolidinyl)methyl]-1-methoxy-2-naphthamide], for which the Ki in data set [1] is 4.7 nM.

Consider `C=CCN1CCCC1CNC(=O)c1cc([N+](=O)[O-])c2ccccc2c1OC` (stereo not drawn) [Example 17], for which, in data set [1], the inhibitory constant (Ki) came to 0.35 nM.

One may read the Ki as a measure of affinity in units of concentration, obtained from inhibition or displacement.
